Results taken from the SangsterLogP compilation.

Assay: method code SF-HPLC, from DOI: 10.1002/ps.2780400103

Compound | logP
COC(=O)c1ccc(OCC(OC(=O)n2ccnc2)C(C)(C)C)cc1 (configuration not stated) | 3.59
CCCCc1ccc(OCC(OC(=O)n2ccnc2)C(C)(C)C)cc1 (configuration not stated) | 4.97
COc1ccc(OCC(OC(=S)n2ccnc2)C(C)(C)C)cc1 (configuration not stated) | 4.31
CC(C)(C)C(COc1ccc(C(F)(F)F)cc1)OC(=O)n1ccnc1 (configuration not stated) | 4.15
CCc1ccc(OCC(OC(=O)n2ccnc2)C(C)(C)C)cc1 (configuration not stated) | 4.1
CCCOc1ccc(OCC(OC(=S)n2ccnc2)C(C)(C)C)cc1 (configuration not stated) | 5.03
CC(C)Oc1ccc(OCC(OC(=O)n2ccnc2)C(C)(C)C)cc1 (configuration not stated) | 4.08
CC(C)(C)C(COc1ccccc1)OC(=O)n1ccnc1 (configuration not stated) | 3.58
CC(C)(C)C(COc1ccc(I)cc1)OC(=O)n1ccnc1 (configuration not stated) | 4.3
CC(C)c1ccc(OCC(OC(=S)n2ccnc2)C(C)(C)C)cc1 (configuration not stated) | 5.21
CC(C)(C)C(COc1ccc(Cl)cc1)OC(=O)n1ccnc1 (configuration not stated) | 4.19
CC(C)(C)C(COc1ccc(-c2ccccc2)cc1)OC(=S)n1ccnc1 (configuration not stated) | 6.06
Cc1ccc(OCC(OC(=S)n2ccnc2)C(C)(C)C)cc1 (configuration not stated) | 4.66
CC(C)(C)C(COc1ccc(Br)cc1)OC(=S)n1ccnc1 (configuration not stated) | 5.11
CC(C)(C)C(COc1ccc(Cl)cc1)OC(=S)n1ccnc1 (configuration not stated) | 4.96
CC(C)(C)C(COc1ccc(F)cc1)OC(=S)n1ccnc1 (configuration not stated) | 4.37
CSc1ccc(OCC(OC(=O)n2ccnc2)C(C)(C)C)cc1 (configuration not stated) | 4.03
CC(C)(C)C(COc1ccc(S(C)(=O)=O)cc1)OC(=O)n1ccnc1 (configuration not stated) | 2.59
CC(C)(C)C(COc1ccc(F)cc1)OC(=O)n1ccnc1 (configuration not stated) | 3.68

Compound | logP
CC(C)c1ccc(OCC(OC(=O)n2ccnc2)C(C)(C)C)cc1 (configuration not stated) | 4.77
CC(C)(C)C(COc1ccc(Br)cc1)OC(=O)n1ccnc1 (configuration not stated) | 4.37
CC(C)(C)C(COc1ccc(C#N)cc1)OC(=O)n1ccnc1 (configuration not stated) | 3.15
CCCc1ccc(OCC(OC(=O)n2ccnc2)C(C)(C)C)cc1 (configuration not stated) | 4.73
CCCc1ccc(OCC(OC(=S)n2ccnc2)C(C)(C)C)cc1 (configuration not stated) | 5.77
CCCCCc1ccc(OCC(OC(=O)n2ccnc2)C(C)(C)C)cc1 (configuration not stated) | 5.26
CC(C)(C)C(COc1ccccc1)OC(=S)n1ccnc1 (configuration not stated) | 4.27
CCOc1ccc(OCC(OC(=S)n2ccnc2)C(C)(C)C)cc1 (configuration not stated) | 4.58
CC(C)(C)C(COc1ccc(-c2ccccc2)cc1)OC(=O)n1ccnc1 (configuration not stated) | 4.56
COc1ccc(OCC(OC(=O)n2ccnc2)C(C)(C)C)cc1 (configuration not stated) | 3.46
COC(=O)c1ccc(OCC(OC(=S)n2ccnc2)C(C)(C)C)cc1 (configuration not stated) | 4.77
CCOC(=O)c1ccc(OCC(OC(=O)n2ccnc2)C(C)(C)C)cc1 (configuration not stated) | 4.12
CCOc1ccc(OCC(OC(=O)n2ccnc2)C(C)(C)C)cc1 (configuration not stated) | 3.86
CC(C)(C)c1ccc(OCC(OC(=O)n2ccnc2)C(C)(C)C)cc1 (configuration not stated) | 4.82
CCc1ccc(OCC(OC(=S)n2ccnc2)C(C)(C)C)cc1 (configuration not stated) | 5.09
CCCCOc1ccc(OCC(OC(=O)n2ccnc2)C(C)(C)C)cc1 (configuration not stated) | 4.29
CC(C)(C)C(COc1ccc([N+](=O)[O-])cc1)OC(=O)n1ccnc1 (configuration not stated) | 3.35
CCCOc1ccc(OCC(OC(=O)n2ccnc2)C(C)(C)C)cc1 (configuration not stated) | 4.1
